# Source: patent US7504420B2, “Compounds which inhibit beta-secretase activity and methods of use” (CoMentis, Inc., priority 2005, dated 2009)
# pIC50, pKi: −log10 of the molar value. Where two headings read alike, the source gives them in different places.
# Assays:
# [1] = target: memapsin 2 (Homo sapiens, UniProt P56817); assay: Inhibition of memapsin 2 catalytic activity (Ki); format: biochemical; conditions: memapsin 2, pH 4, 37° C.
# Method: Potency of compounds were determined by measurement of their inhibition of memapsin 2 catalytic activity toward a fluorescent substrate. […] Briefly, assays were performed at pH 4, 37° C., by pre-incubation of memapsin 2 enzyme with compound for 20 minutes. Activity measure was initiated by addition of a fluorogenic substrate FS-2 (Bachem Americas, Torrance, Calif.). Fluorescent signal increase over time was measured as a rate of hydrolysis of the peptide substrate. […]
# [2] = test system: Aβ production in Chinese hamster ovary cells that over-express human APP695 with the London and Swedish mutations; assay: Cellular Aβ IC50 determination (Aβ40 sandwich ELISA); conditions: Cricetulus griseus, CHO, 24 h
# Method: The potency of compounds against memapsin 2 catalytic activity was determined in a cellular assay of Aβ production. […] Compounds are dissolved in DMSO to concentrations near 1 mM, and diluted into culture media to a final concentration near 4 μM (final 0.4% DMSO). Compounds were diluted serially and applied to cells in multi-well plates 48 h after seeding. Incubation was continued in 5% CO2 at 37 degrees C. for 24 h. Aliquots were removed and assayed for Aβ40 content using a sandwich ELISA (BioSource International). Amount of Aβ40 over the range of concentration of compounds, relative to control incubations, were fit to a 4-parameter IC50 model.
# [3] = read-out: Cell, Aβ40, CHO cells over-expressing human APP695 (London and Swedish mutations), 24 h
# Chain of memapsin 2 (P56817 46-501): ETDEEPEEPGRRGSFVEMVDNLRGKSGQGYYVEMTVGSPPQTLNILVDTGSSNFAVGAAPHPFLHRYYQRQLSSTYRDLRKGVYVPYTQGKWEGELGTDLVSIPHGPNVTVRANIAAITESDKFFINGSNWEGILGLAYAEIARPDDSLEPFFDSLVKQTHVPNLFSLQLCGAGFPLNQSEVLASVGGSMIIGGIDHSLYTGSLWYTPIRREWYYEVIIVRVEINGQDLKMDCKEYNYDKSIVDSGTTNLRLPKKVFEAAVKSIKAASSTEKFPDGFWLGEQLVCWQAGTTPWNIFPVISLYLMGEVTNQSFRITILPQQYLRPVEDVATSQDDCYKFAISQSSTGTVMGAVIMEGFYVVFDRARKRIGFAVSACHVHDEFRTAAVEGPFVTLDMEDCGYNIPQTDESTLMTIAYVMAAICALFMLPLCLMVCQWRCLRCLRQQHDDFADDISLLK
SMILES,pKi ([1]; read-out: M2K),"pIC50 [2, 3]",pKi ([1]; M2K),pIC50 ([2]; read-out: Cell)
COc1cccc(CNCC(O)C(Cc2ccccc2)NC(=O)c2cccc(C(=O)N(C)Cc3csc(C)n3)c2)c1 (centres unmarked) [N1-(3-hydroxy-4-(3-methoxybenzylamino)-1-phenylbutan-2-yl)-N3-methyl-N3-((2-methylthiazol-4-yl)methyl)isophthalamide],> 6.52,> 6.00,–,–
COc1cccc(CNCC(O)C(Cc2ccccc2)NC(=O)c2cccc(C(=O)N(C)Cc3nc(C)co3)c2)c1 (centres unmarked) [N1-(3-hydroxy-4-(3-methoxybenzylamino)-1-phenylbutan-2-yl)-N3-methyl-N3-((4-methyloxazol-2-yl)methyl)isophthalamide],–,–,> 6.52,> 6.00
COc1cccc(CNCC(O)C(Cc2ccccc2)NC(=O)c2cc(C(=O)N(C)Cc3nc(C)cs3)cc([N+](=O)[O-])c2)c1 (centres unmarked) [N1-(3-hydroxy-4-(3-methoxybenzylamino)-1-phenylbutan-2-yl)-N3-methyl-N3-((4-methylthiazol-2-yl)methyl)-5-nitroisophthalamide],> 6.52,> 6.00,–,–
COc1ccc(CNCC(O)C(Cc2ccccc2)NC(=O)c2cccc(C(=O)N(C)Cc3nc(C)cs3)c2)cc1 (centres unmarked) [N1-(3-hydroxy-4-(4-methoxybenzylamino)-1-phenylbutan-2-yl)-N3-methyl-N3-((4-methylthiazol-2-yl)methyl)isophthalamide],< 6.30,5.30 to 6.00,–,–
COc1ccc(CCNCC(O)C(Cc2ccccc2)NC(=O)c2cccc(C(=O)N(C)Cc3nc(C)cs3)c2)cc1 (centres unmarked) [N1-(3-hydroxy-4-(4-methoxyphenethylamino)-1-phenylbutan-2-yl)-N3-methyl-N3-((4-methylthiazol-2-yl)methyl)isophthalamide],< 6.30,5.30 to 6.00,–,–
COc1ccc(S(=O)(=O)NCC(O)C(Cc2ccccc2)NC(=O)c2cc(C(=O)NC(C)c3ccccc3)cc(N(C)S(C)(=O)=O)c2)cc1 (centres unmarked) [N1-(3-hydroxy-4-(4-methoxyphenylsulfonamido)-1-phenylbutan-2-yl)-5-(N-methylmethylsulfonamido)-N3-(1-phenylethyl)isophthalamide],< 6.30,5.30 to 6.00,–,–
COc1cccc(CN2CCC(CNCC(O)C(Cc3ccccc3)NC(=O)c3cc(C(=O)NC(C)c4ccccc4)cc(N(C)S(C)(=O)=O)c3)CC2)c1 (centres unmarked) [N1-(3-hydroxy-4-((1-(3-methoxybenzyl)piperidin-4-yl)methylamino)-1-phenylbutan-2-yl)-5-(N-methylmethylsulfonamido)-N3-(1-phenylethyl)isophthalamide],< 6.30,< 5.30,–,–
CC(NC(=O)c1cc(C(=O)NC(Cc2ccccc2)C(O)CNCC2CCCN2C)cc(N(C)S(C)(=O)=O)c1)c1ccccc1 (centres unmarked) [N1-(3-hydroxy-4-((1-methylpyrrolidin-2-yl)methylamino)-1-phenylbutan-2-yl)-5-(N-methylmethylsulfonamido)-N3-(1-phenylethyl)isophthalamide],< 6.30,< 5.30,–,–
COC1CCCC(CNCC(O)C(Cc2ccccc2)NC(=O)c2cc(C(=O)NC(C)c3ccccc3)cc(N(C)S(C)(=O)=O)c2)C1 (centres unmarked) [N1-(3-hydroxy-4-((3-methoxycyclohexyl)methylamino)-1-phenylbutan-2-yl)-5-(N-methylmethylsulfonamido)-N3-(1-phenylethyl)isophthalamide],< 6.30,5.30 to 6.00,–,–
Cc1csc(CN(C)C(=O)c2cccc(C(=O)NC(Cc3ccccc3)C(O)CNCc3cncc(OCC(C)C)c3)c2)n1 (centres unmarked) [N1-(3-hydroxy-4-((5-isobutoxypyridin-3-yl)methylamino)-1-phenylbutan-2-yl)-N3-methyl-N3-((4-methylthiazol-2-yl)methyl)isophthalamide],> 6.52,> 6.00,–,–
Cc1csc(CN(C)C(=O)c2cccc(C(=O)NC(Cc3ccccc3)C(O)CNCc3cncc(CC(C)C)c3)c2)n1 (centres unmarked) [N1-(3-hydroxy-4-((5-isobutylpyridin-3-yl)methylamino)-1-phenylbutan-2-yl)-N3-methyl-N3-((4-methylthiazol-2-yl)methyl)isophthalamide],> 6.52,> 6.00,–,–
Cc1csc(CN(C)C(=O)c2cccc(C(=O)NC(Cc3ccccc3)C(O)CNCc3cncc(OC(C)C)c3)c2)n1 (centres unmarked) [N1-(3-hydroxy-4-((5-isopropoxypyridin-3-yl)methylamino)-1-phenylbutan-2-yl)-N3-methyl-N3-((4-methylthiazol-2-yl)methyl)isophthalamide],> 6.52,> 6.00,–,–
COc1cncc(CNCC(O)C(Cc2ccccc2)NC(=O)c2cccc(C(=O)N(C)Cc3nc(C)cs3)c2)c1 (centres unmarked) [N1-(3-hydroxy-4-((5-methoxypyridin-3-yl)methylamino)-1-phenylbutan-2-yl)-N3-methyl-N3-((4-methylthiazol-2-yl)methyl)isophthalamide],> 6.52,> 6.00,–,–
"COc1ccc(CCNCC(O)C(Cc2ccccc2)NC(=O)c2cc(C(=O)NC(C)c3ccccc3)cc(N(C)S(C)(=O)=O)c2)cc1OC (centres unmarked) [N1-(4-(3,4-dimethoxyphenethylamino)-3-hydroxy-1-phenylbutan-2-yl)-5-(N-methylmethylsulfonamido)-N3-(1-phenylethyl)isophthalamide]",> 6.52,> 6.00,–,–

# Second part, the molecule after the results:
pKi ([1]; read-out: M2K),"pIC50 [2, 3]",pKi ([1]; M2K),pIC50 ([2]; read-out: Cell),SMILES
> 6.52,> 6.00,–,–,Cc1csc(CN(C)C(=O)c2cccc(C(=O)NC(Cc3ccccc3)C(O)CNCc3cccc(OC(F)F)c3)c2)n1 (centres unmarked) [N1-(4-(3-(difluoromethoxy)benzylamino)-3-hydroxy-1-phenylbutan-2-yl)-N3-methyl-N3-((4-methylthiazol-2-yl)methyl)isophthalamide]
> 6.52,> 6.00,–,–,CCOc1cccc(CNCC(O)C(Cc2ccccc2)NC(=O)c2cc(C(=O)NC(C)c3ccccc3)cc(N(C)S(C)(=O)=O)c2)c1 (centres unmarked) [N1-(4-(3-ethoxybenzylamino)-3-hydroxy-1-phenylbutan-2-yl)-5-(N-methylmethylsulfonamido)-N3-(1-phenylethyl)isophthalamide]
> 6.52,> 6.00,–,–,C#Cc1cccc(CNCC(O)C(Cc2ccccc2)NC(=O)c2cc(C(=O)NC(C)c3ccccc3)cc(N(C)S(C)(=O)=O)c2)c1 (centres unmarked) [N1-(4-(3-ethynylbenzylamino)-3-hydroxy-1-phenylbutan-2-yl)-5-(N-methylmethylsulfonamido)-N3-(1-phenylethyl)isophthalamide]
> 6.52,> 6.00,–,–,C#Cc1cccc(CNCC(O)C(Cc2ccccc2)NC(=O)c2cccc(C(=O)N(C)Cc3nc(C)cs3)c2)c1 (centres unmarked) [N1-(4-(3-ethynylbenzylamino)-3-hydroxy-1-phenylbutan-2-yl)-N3-methyl-N3-((4-methylthiazol-2-yl)methyl)isophthalamide]
6.30 to 6.52,5.30 to 6.00,–,–,CC(NC(=O)c1cc(C(=O)NC(Cc2ccccc2)C(O)CNCc2c[nH]cn2)cc(N(C)S(C)(=O)=O)c1)c1ccccc1 (centres unmarked) [N1-(4-((1H-imidazol-4-yl)methylamino)-3-hydroxy-1-phenylbutan-2-yl)-5-(N-methylmethylsulfonamido)-N3-(1-phenylethyl)isophthalamide]
> 6.52,> 6.00,–,–,CCOc1cncc(CNCC(O)C(Cc2ccccc2)NC(=O)c2cc(C(=O)NC(C)c3ccccc3)cc(N(C)S(C)(=O)=O)c2)c1 (centres unmarked) [N1-(4-((5-ethoxypyridin-3-yl)methylamino)-3-hydroxy-1-phenylbutan-2-yl)-5-(N-methylmethylsulfonamido)-N3-(1-phenylethyl)isophthalamide]
> 6.52,> 6.00,–,–,CCOc1cncc(CNCC(O)C(Cc2ccccc2)NC(=O)c2cccc(C(=O)N(C)Cc3nc(C)cs3)c2)c1 (centres unmarked) [N1-(4-((5-ethoxypyridin-3-yl)methylamino)-3-hydroxy-1-phenylbutan-2-yl)-N3-methyl-N3-((4-methylthiazol-2-yl)methyl)isophthalamide]
> 6.52,> 6.00,–,–,"CC(NC(=O)c1cc(C(=O)NC(Cc2ccccc2)C(O)CNCc2ccc3c(c2)OCO3)cc(N(C)S(C)(=O)=O)c1)c1ccccc1 (centres unmarked) [N1-(4-(benzo[d][1,3]dioxol-5-ylmethylamino)-3-hydroxy-1-phenylbutan-2-yl)-5-(N-methylmethylsulfonamido)-N3-(1-phenylethyl)isophthalamide]"
> 6.52,> 6.00,–,–,"COc1cccc(CNCC(O)C(Cc2ccccc2)NC(=O)c2cccc(C(=O)N(C)Cc3nc(C)oc3C)c2)c1 (centres unmarked) [N1-((2,5-dimethyloxazol-4-yl)methyl)-N3-(3-hydroxy-4-(3-methoxybenzylamino)-1-phenylbutan-2-yl)-N1-methylisophthalamide]"
> 6.52,> 6.00,–,–,CCc1csc(CN(C)C(=O)c2cccc(C(=O)NC(Cc3ccccc3)C(O)CNCc3cccc(OC)c3)c2)n1 (centres unmarked) [N1-((4-ethylthiazol-2-yl)methyl)-N3-(3-hydroxy-4-(3-methoxybenzylamino)-1-phenylbutan-2-yl)-N1-methylisophthalamide]
> 6.52,> 6.00,–,–,CCN(Cc1nc(C)cs1)C(=O)c1cccc(C(=O)NC(Cc2ccccc2)C(O)CNCc2cccc(OC)c2)c1 (centres unmarked) [N1-ethyl-N3-(3-hydroxy-4-(3-methoxybenzylamino)-1-phenylbutan-2-yl)-N1-((4-methylthiazol-2-yl)methyl)isophthalamide]
